Holding throughout (test): relative viability (nuclei count vs DMSO), 5 days (fraction); higher = more cells survive
Compound in test [1]: CC1=C(C(=NN1)C)CC2=C(C3=C(S2)N(C(=O)N(C3=O)C)CC(C)C)C(=O)N4C[C@@H](CO4)O + Nc1ncn([C@H]2C[C@H](O)[C@@H](CO)O2)c(=O)n1 [Decitabine] (partner 2 µM)
The method in brief: (§1)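 Relative viability was taken as the ratio of nuclei in treated wells to nuclei in vehicle wells. Lung cancer cell lines in 1536-well plates received compounds by pin tool one day after seeding, either one drug alone or a fixed anchor-drug dose plus five library-drug doses (not always all listed) in √10 steps. Nuclei were counted on 4× images after 5 days of treatment, and values are medians of duplicate plates.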

Compound in test [2]: Cc1ccccc1C(C(=O)NC1CCCCC1)N(C(=O)Cn1ccnc1C)c1cccc(F)c1 [IDH-C35] + Nc1ncn([C@H]2C[C@H](O)[C@@H](CO)O2)c(=O)n1 [Decitabine] (partner 2 µM)
The method in brief:
as §1

Compound in test [3]: Cc1ccccc1C(C(=O)NC1CCCCC1)N(C(=O)Cn1ccnc1C)c1cccc(F)c1 [IDH-C35] + CC1(C)CCC(c2ccc(Cl)cc2)=C(CN2CCN(c3ccc(C(=O)NS(=O)(=O)c4ccc(N[C@H](CCN5CCOCC5)CSc5ccccc5)c(S(=O)(=O)C(F)(F)F)c4)cc3)CC2)C1 [Navitoclax] (partner 0.5 µM)
The method in brief:
as §1

Compound in test [4]: CC1=C(C(=NN1)C)CC2=C(C3=C(S2)N(C(=O)N(C3=O)C)CC(C)C)C(=O)N4C[C@@H](CO4)O + COc1cc2c(Oc3ccc(NC(=O)C4(C(=O)Nc5ccc(F)cc5)CC4)cc3F)ccnc2cc1OCCCN1CCOCC1 [Foretinib] (partner 0.25 µM)
The method in brief: as §1

The results in this text go back to the supplement of paper PMC10307832.

Turning to PC-3 [JPC-3], the relative viability in test [1] (first compound 0.0025 µM) amounted to 0.843; in test [1] (first compound 0.007906 µM) it was 0.787; in test [1] (first compound 0.025 µM), 0.9; in test [1] (first compound 0.07906 µM), 0.843; in test [1] (first compound 0.25 µM), 0.996; in test [2] (first compound 0.08 µM), 0.843. The relative viability was 0.795 in test [2] (first compound 0.253 µM); 0.864 in test [2] (first compound 0.8 µM); 0.806 in test [2] (first compound 2.53 µM); 0.807 in test [2] (first compound 8 µM); 0.789 in test [3] (first compound 0.08 µM); 0.718 in test [3] (first compound 0.253 µM). For the same cell line, the relative viability was found to be 0.778 in test [3] (first compound 0.8 µM); 0.858 in test [3] (first compound 2.53 µM); 0.74 in test [3] (first compound 8 µM); 1.14 in test [4] (first compound 0.0025 µM); 1.01 in test [4] (first compound 0.007906 µM); 1.05 in test [4] (first compound 0.025 µM). Moreover, the relative viability in test [4] (first compound 0.07906 µM) came to 1.02; in test [4] (first compound 0.25 µM), 1.08.
Turning to PC-14, the relative viability was 0.223 in test [1] (first compound 0.0025 µM); 0.27 in test [1] (first compound 0.007906 µM); 0.215 in test [1] (first compound 0.025 µM); 0.199 in test [1] (first compound 0.07906 µM); 0.275 in test [1] (first compound 0.25 µM); 0.211 in test [2] (first compound 0.08 µM). Further, the relative viability in test [2] (first compound 0.253 µM) amounted to 0.206; in test [2] (first compound 0.8 µM) it was 0.239; in test [2] (first compound 2.53 µM), 0.226; in test [2] (first compound 8 µM), 0.214; in test [3] (first compound 0.08 µM), 1.11; in test [3] (first compound 0.253 µM) it was 1.03. Further, the relative viability worked out at 0.966 in test [3] (first compound 0.8 µM); 1.04 in test [3] (first compound 2.53 µM); 0.98 in test [3] (first compound 8 µM); 0.973 in test [4] (first compound 0.0025 µM); 0.936 in test [4] (first compound 0.007906 µM); 0.941 in test [4] (first compound 0.025 µM). Also, the values for the relative viability in test [4] (first compound 0.07906 µM) and in test [4] (first compound 0.25 µM) were 0.942 and 1.09, respectively.
Turning to RERF-LC-KJ, the relative viability turned out to be 0.852 in test [1] (first compound 0.0025 µM); 0.739 in test [1] (first compound 0.007906 µM); 0.766 in test [1] (first compound 0.025 µM); 0.656 in test [1] (first compound 0.07906 µM); 0.678 in test [1] (first compound 0.25 µM); 0.727 in test [2] (first compound 0.08 µM). Further, the relative viability is 0.69 in test [2] (first compound 0.253 µM); 0.753 in test [2] (first compound 0.8 µM); 0.809 in test [2] (first compound 2.53 µM); 0.681 in test [2] (first compound 8 µM); 0.901 in test [3] (first compound 0.08 µM); 0.735 in test [3] (first compound 0.253 µM). Moreover, the relative viability in test [3] (first compound 0.8 µM) amounted to 1.02; in test [3] (first compound 2.53 µM), 1.25; in test [3] (first compound 8 µM) it was 0.832; in test [4] (first compound 0.0025 µM), 0.866; in test [4] (first compound 0.007906 µM) it was 0.942; in test [4] (first compound 0.025 µM), 0.909. Besides, the results for the relative viability in test [4] (first compound 0.07906 µM) and in test [4] (first compound 0.25 µM) were 0.886 and 0.935, respectively.
For SK-LU-1, the relative viability in test [1] (first compound 0.0025 µM) was found to be 0.524; in test [1] (first compound 0.007906 µM) it was 0.475; in test [1] (first compound 0.025 µM), 0.448; in test [1] (first compound 0.07906 µM), 0.561; in test [1] (first compound 0.25 µM) it was 0.618; in test [2] (first compound 0.08 µM), 0.636. Besides, the relative viability in test [2] (first compound 0.253 µM) was determined as 0.687; in test [2] (first compound 0.8 µM), 0.592; in test [2] (first compound 2.53 µM), 0.65; in test [2] (first compound 8 µM) it was 0.654; in test [3] (first compound 0.08 µM), 0.788; in test [3] (first compound 0.253 µM), 0.682. The relative viability was 0.804 in test [3] (first compound 0.8 µM); 1.01 in test [3] (first compound 2.53 µM); 0.652 in test [3] (first compound 8 µM); 0.659 in test [4] (first compound 0.0025 µM); 0.556 in test [4] (first compound 0.007906 µM); 0.527 in test [4] (first compound 0.025 µM). Besides, the results for the relative viability in test [4] (first compound 0.07906 µM) and in test [4] (first compound 0.25 µM) were 0.492 and 0.548, respectively.
As for SK-MES-1, the relative viability in test [1] (first compound 0.0025 µM) was found to be 0.428; in test [1] (first compound 0.007906 µM), 0.384; in test [1] (first compound 0.025 µM), 0.394; in test [1] (first compound 0.07906 µM) it was 0.381; in test [1] (first compound 0.25 µM), 0.449; in test [2] (first compound 0.08 µM) it was 0.294. The relative viability is 0.39 in test [2] (first compound 0.253 µM); 0.379 in test [2] (first compound 0.8 µM); 0.362 in test [2] (first compound 2.53 µM); 0.377 in test [2] (first compound 8 µM); 1.18 in test [3] (first compound 0.08 µM); 1.03 in test [3] (first compound 0.253 µM). In addition, the relative viability in test [3] (first compound 0.8 µM) worked out at 1.28; in test [3] (first compound 2.53 µM), 1.14; in test [3] (first compound 8 µM), 1.27; in test [4] (first compound 0.0025 µM), 0.901; in test [4] (first compound 0.007906 µM) it was 1.06; in test [4] (first compound 0.025 µM), 1.02. Moreover, the relative viability in test [4] (first compound 0.07906 µM) was found to be 0.954; in test [4] (first compound 0.25 µM), 0.991.
For the cell line SW 1573, the relative viability amounted to 0.529 in test [1] (first compound 0.0025 µM); 0.519 in test [1] (first compound 0.007906 µM); 0.634 in test [1] (first compound 0.025 µM); 0.534 in test [1] (first compound 0.07906 µM); 0.504 in test [1] (first compound 0.25 µM); 0.491 in test [2] (first compound 0.08 µM). Besides, the relative viability in test [2] (first compound 0.253 µM) came out at 0.628; in test [2] (first compound 0.8 µM) it was 0.564; in test [2] (first compound 2.53 µM) it was 0.544; in test [2] (first compound 8 µM), 0.465; in test [3] (first compound 0.08 µM) it was 0.964; in test [3] (first compound 0.253 µM), 1.07. The relative viability in test [3] (first compound 0.8 µM) was determined as 1.07; in test [3] (first compound 2.53 µM) it was 0.841; in test [3] (first compound 8 µM) it was 1.02; in test [4] (first compound 0.0025 µM) it was 0.958; in test [4] (first compound 0.007906 µM), 1.05; in test [4] (first compound 0.025 µM), 0.86. Besides, the relative viability turned out to be 0.74 in test [4] (first compound 0.07906 µM) and 0.964 in test [4] (first compound 0.25 µM).
On to UMC-11, for which the relative viability in test [1] (first compound 0.0025 µM) was determined as 0.54; in test [1] (first compound 0.007906 µM), 0.506; in test [1] (first compound 0.025 µM), 0.38; in test [1] (first compound 0.07906 µM) it was 0.483; in test [1] (first compound 0.25 µM), 0.491; in test [2] (first compound 0.08 µM) it was 0.572. Further, the relative viability in test [2] (first compound 0.253 µM) worked out at 0.724; in test [2] (first compound 0.8 µM), 0.576; in test [2] (first compound 2.53 µM) it was 0.609; in test [2] (first compound 8 µM) it was 0.619; in test [3] (first compound 0.08 µM), 0.298; in test [3] (first compound 0.253 µM) it was 0.347. The relative viability in test [3] (first compound 0.8 µM) was found to be 0.323; in test [3] (first compound 2.53 µM), 0.32; in test [3] (first compound 8 µM) it was 0.344; in test [4] (first compound 0.0025 µM) it was 1.16; in test [4] (first compound 0.007906 µM), 1.17; in test [4] (first compound 0.025 µM), 0.997. Besides, the relative viability in test [4] (first compound 0.07906 µM) is 1.07; in test [4] (first compound 0.25 µM) it was 1.08.
